{"source": "patent US20190275179A1", "about": "“SONOPHORE-LABELED PROBES AND RELATED IN VIVO IMAGING TECHNIQUES” (MEMORIAL SLOAN KETTERING CANCER CENTER, priority 2016, published 2019)", "key": {"[1]": {"test": "In vivo optoacoustic imaging (RSOM) of BHQ-1 in mouse footpad", "design": "species or system mice", "procedure": "For in vivo experiments, 6-8 week old female Hsd: Athymic Nude-Foxn1^nu mice were purchased from Envigo (IN, US). All animal experiments were performed in accordance with institutional guidelines and approved by the IACUC of MSK, and followed NIH guidelines for animal welfare.\nFor imaging, a high-resolution raster-scan optoacoustic mesoscopy (RSOM) prototype scanner was used in an epi-illumination mode. The scanner illuminates the tissue with a fast monochromatic nanosecond laser (1 ns, 2 kHz, 1 mJ pulse energy at 532 nm). The laser light was coupled to the sample using a three arm fiber bundle which is combined with the ultrasound detector into a single scan unit. The optoacoustic signals were measured with a 50 MHz spherically focused detector and a bandwidth of 5-80 MHz. Furthermore, the signals were amplified with a 63 dB low noise amplifier and digitized using a fast 12 bit data acquisition card. The scan was performed in a continuous-discrete manner. The usual scan took 1.30 minutes for a field of view of 8×8 mm^2 and the maximum depth was about 2 mm, limited by the penetration depth of 532 nm photons in tissue.\nThe raw signals were transformed to the computer on which they were later reconstructed using beam forming. Before reconstruction, the signals were divided into two sub-bands: low frequencies 5-25 MHz and high frequencies 25-80 MHz. These sub-bands were later on separately reconstructed an overlayed using different colors (red=low frequencies, green=high frequencies). For the reconstruction a speed of sound of 1540 m/s has been used and the reconstruction has been performed with voxel sizes of 20×20×5 μm^3. Finally, the Hilbert transform was applied to the reconstructed volume to remove the negative values and the images were further processed using a Wiener and a Median filter to improve the signal to noise ratio. For visualization we took the maximum intensity of the three-dimensional volume.\nAll mice were anesthetized using 2% isoflurane. For imaging the quencher dye in vivo, 10 nmol BHQ-1 solution were injected subcutaneously into the footpad of 3 mice. The mouse was then placed in a pre-warmed water bath on a mouse bed keeping the head of the animal above water level. The foot of the mouse was stabilized under water with tape to keep it in a static position for the measurement procedure. The feet were measured before and directly after injection using RSOM as described under 2.3. Quantitative analysis was done in ImageJ by placing a ROI over the injection site of each foot as well as over the background blood vessels in the foot pad."}, "[2]": {"test": "Absorbance spectra of BHQ-1 and BHQ-1-cRGD by spectrophotometry", "type": "physicochemical", "conditions": "measured in ethanol, 250 nm to 750 nm", "procedure": "To a stirring solution of cyclic RGD (cyclo(Arg-Gly-Asp-D-Phe-Lys) (cRGD), 1.0 mg, 1.66 μmol, 1.0 eq., Peptides International, KY, US) in anhydrous DMF (200 μL) a solution of BHQ-1 N-hydroxysuccinimide (NHS) ester (1.2 mg, 2.0 μmol, 1.2 eq., Biosearch Technologies, CA, US) in anhydrous DMF (200 μL) and […] (1.2 μL, 8.0 μmol, 4.8 eq.) was added sequentially. The resulting reaction solution was stirred for 4 h at room temperature. Purification by high performance liquid chromatography (HPLC) (C18, 10% to 100% of acetonitrile over 10 min, then 100% of acetonitrile until 18 min, 1.0 mL/min) yielded BHQ-1-cRGD (1.5 mg, 1.4 μmol, 82%) as a black solid. The purity of BHQ-1-cRGD was analyzed by performing analytical HPLC (rt=11.0 min, >97%). The identity of the product ([…], MW: 1090.21 g/mol) was verified by electrospray ionization mass spectrometry (ESI(+): m/z (%) 546.70 (100) [M+2H]^2+, 1090.40 (25) [M+H]^+). The absorbance spectra of BHQ-1 and BHQ-1-cRGD were measured in ethanol using spectrophotometry from 250 nm to 750 nm."}, "[3]": {"conditions": "10 nmol subcutaneous into footpad"}}, "data": [{"smiles": "COc1cc(/N=N/c2ccc(C)cc2[N+](=O)[O-])c(C)cc1/N=N/c1ccc(N)cc1", "note": "[BHQ-1]", "values": [{"measurement": "optoacoustic signal at the injection site, high frequencies (25-80 MHz)", "setting": "[1]; [3]", "value": "55.6±5.7", "unit": "AU"}, {"measurement": "optoacoustic signal at the injection site, low frequencies (5-25 MHz)", "setting": "[1]; [3]", "value": "67.2±3.4", "unit": "AU"}, {"measurement": "optoacoustic signal at the injection site, overlay image of all detected frequencies", "setting": "[1]; 10 nmol subcutaneous into footpad, directly after injection", "value": "121.6±14.2", "unit": "AU"}, {"measurement": "optoacoustic signal at injection site relative to surrounding footpad vessels", "setting": "[1]; overlay of all frequencies, 10 nmol s.c.", "value": "~5", "unit": "times"}, {"measurement": "absorption spectrum peak", "setting": "[2]", "value": 515, "unit": "nm"}]}]}
